One assay concerns MDA-MB-468. In words: 13C3 Serine Assay MDA-MB-468 (13C3 serine levels by LC/MS/MS). In kind it is cell-based. The conditions noted are these: Homo sapiens.
The next assay concerns the target PHGDH (Homo sapiens (Human), UniProt O43175). Kind of assay: 3-Phosphoglycerate Dehydrogenase (PHGDH) Fluorescence Intensity Assay, run at two NAD/3-PG ratios: PHGDH_HIGH_NAD/3-PG (250 μM NAD/500 μM 3-PG) and PHGDH_500_NAD/3-PG (500 μM NAD/500 μM 3-PG). Format: biochemical.
[1] abbreviates: MDA-MB-468, read-out: IC50 (13CSERINE).
The mark [2] stands for this setting: 250 μM NAD/500 μM 3-PG, read-out: IC50 (PHGDH_HIGH_NAD/3-PG).
Where [3] appears, read: 500 μM NAD/500 μM 3-PG, read-out: IC50 (PHGDH_500_NAD/3-PG).
Where [4] appears, read: MDA-MB-468 cells, 13C3 serine levels by LC/MS/MS, read-out: IC50 (13CSERINE).

Like-named read-outs stand apart in the source and are kept apart here.

Chain of PHGDH (O43175 2-533 limits assumed): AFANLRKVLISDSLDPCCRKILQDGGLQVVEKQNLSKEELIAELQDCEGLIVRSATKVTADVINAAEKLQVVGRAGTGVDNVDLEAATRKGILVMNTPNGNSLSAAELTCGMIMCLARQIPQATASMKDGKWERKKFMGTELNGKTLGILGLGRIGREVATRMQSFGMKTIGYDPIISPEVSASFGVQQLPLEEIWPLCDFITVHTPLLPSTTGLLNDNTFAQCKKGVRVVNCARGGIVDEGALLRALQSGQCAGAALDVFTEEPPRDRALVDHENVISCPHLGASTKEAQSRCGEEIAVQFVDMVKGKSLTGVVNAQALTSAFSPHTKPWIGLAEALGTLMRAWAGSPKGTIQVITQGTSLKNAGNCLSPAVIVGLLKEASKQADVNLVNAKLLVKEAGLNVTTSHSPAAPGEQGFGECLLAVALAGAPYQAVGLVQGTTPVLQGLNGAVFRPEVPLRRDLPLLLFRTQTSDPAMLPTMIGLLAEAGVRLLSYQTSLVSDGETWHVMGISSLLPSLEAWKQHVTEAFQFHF
Procedure for MDA-MB-468: Cells are cultivated in Medium I in a 75 mL flask.
Day 1: 5000 cells in 180 μL Medium I/well were seeded into a 96-well plate. Plates were incubated at 37° C. in a 5% CO2 incubator overnight.
Day 2: 10 mM DMSO stock from test compounds were serially pre-diluted with Medium I (See dilution scheme: for the first well 20 μL DMSO stock are diluted with 180 μL Medium I. From this 1000 μM solution further seven 1:3 (1+2) dilution are prepared with Medium I). 20 μL of these pre-dilutions are transferred in duplicates to the 96-well plate of Day 1. After incubation at 37° C. in a CO2 incubator for 1 hour the medium was removed, 100 μL PBS (tempered to room temperature) added and subsequently removed again.
180 μL Medium II were then added per well and 20 μL of serial dilutions of test compounds in Medium II (as described before) were transferred per well as above. After 180 minutes incubation at 37° C. in a CO2 incubator the medium was again cautiously removed.
After the addition of 100 μL methanol: H2O (80:20, v:v, pre-cooled to −80° C.) the plates were sealed immediately and frozen at −80° C.
At day of measurement plates were thawn, centrifuged and the supernatant evaporated. The samples were resuspended in 100 μl water for tandem mass spectrometry.
^13C3 serine levels were analyzed with LC/MS/MS using Multiple Reaction Monitoring (MRM).
IC50 values were computed from these values using a 4 parametric logistic model.

For the compound `CCOC(=O)CS(=O)(=O)c1ccc([C@@H](CO)NC(=O)c2cc3c(Cl)c(Cl)c(C)cc3n2C)cc1` [Example 01-002, ethyl 2-{4-[(1S)-1-[(4,5-dichloro-1,6-dimethyl-1H-indol-2-yl)formamido]-2-hydroxyethyl]benzenesulfonyl}acetate], the IC50 in the assay with MDA-MB-468 (setting [1]) was 2.9 nM; at PHGDH (setting [2]) it was 169 nM; on PHGDH (setting [3]), 258 nM.
As for `COC(=O)CS(=O)(=O)c1ccc([C@@H](C)NC(=O)c2cc3c(Cl)cc(-c4cnn(C)c4)cc3n2C)cc1` [Example 01-003, methyl 2-{4-[(1R)-1-{[4-chloro-1-methyl-6-(1-methyl-1H-pyrazol-4-yl)-1H-indol-2-yl]formamido}ethyl]benzenesulfonyl}acetate], the IC50 amounted to 109 nM in the assay on MDA-MB-468 (setting [4]) and 905 nM at PHGDH (setting [2]).
Taken in the same sequence, the figures for `CCOC(=O)CS(=O)(=O)c1ccc([C@@H](C)NC(=O)c2cc3c(Cl)cc(C)cc3n2C)cc1` [Example 01-004, ethyl 2-{4-[(1R)-1-[(4-chloro-1,6-dimethyl-1H-indol-2-yl)formamido]ethyl]benzenesulfonyl}acetate] were 29.3 nM and 964 nM.
`CCOC(=O)CS(=O)(=O)c1ccc([C@@H](CO)NC(=O)c2cc3c(Cl)cc(C)cc3n2C)cc1` [Example 01-005, ethyl 2-{4-[(1S)-1-[(4-chloro-1,6-dimethyl-1H-indol-2-yl)formamido]-2-hydroxyethyl]benzenesulfonyl}acetate]: the values for the IC50 in the assay with MDA-MB-468 (setting [4]) and on PHGDH (setting [2]) were 3.3 nM and 223 nM, respectively.
As to `COC(=O)CS(=O)(=O)c1ccc([C@@H](C)NC(=O)c2cc3c(Cl)c(Cl)c(C)nc3n2C)cc1` [Example 01-006, methyl 2-{4-[(1R)-1-({4,5-dichloro-1,6-dimethyl-1H-pyrrolo[2,3-b]pyridin-2-yl}formamido)ethyl]benzenesulfonyl}acetate], the values for the IC50 in the assay on MDA-MB-468 (setting [4]) and on PHGDH (setting [2]) were 88.8 nM and 485 nM, respectively.
Take `COC(=O)CS(=O)(=O)c1ccc([C@@H](CO)NC(=O)c2cc3c(Cl)c(Cl)c(C)cc3n2C)cc1` [Example 01-007, methyl 2-{4-[(1S)-1-[(4,5-dichloro-1,6-dimethyl-1H-indol-2-yl)formamido]-2-hydroxyethyl]benzenesulfonyl}acetate]: the IC50 with MDA-MB-468 (setting [4]) turned out to be 5 nM; at PHGDH (setting [2]), 121 nM.
On the same counts, the results for `CCOC(=O)CS(=O)(=O)c1ccc([C@@H](C)NC(=O)c2cc3c(Cl)cc(-c4cnn(C)c4)cc3n2C)cc1` [Example 01-009, ethyl 2-{4-[(1R)-1-{[4-chloro-1-methyl-6-(1-methyl-1H-pyrazol-4-yl)-1H-indol-2-yl]formamido}ethyl]benzenesulfonyl}acetate] are 44.1 nM and 815 nM.
On the same counts, the results for `CC(C)OC(=O)CS(=O)(=O)c1ccc([C@@H](C)NC(=O)c2cc3c(Cl)cc(-c4cnn(C)c4)cc3n2C)cc1` [Example 01-011, propan-2-yl 2-{4-[(1R)-1-{[4-chloro-1-methyl-6-(1-methyl-1H-pyrazol-4-yl)-1H-indol-2-yl]formamido}ethyl]benzenesulfonyl}acetate] are 489 nM and 1930 nM.
On the same counts, the results for `COC(=O)CS(=O)(=O)c1ccc([C@@H](C)NC(=O)c2cc3c(Cl)cc(C)cc3n2C)cc1` [Example 01-012, methyl 2-{4-[(1R)-1-[(4-chloro-1,6-dimethyl-1H-indol-2-yl)formamido]ethyl]benzenesulfonyl}acetate] are 52.5 nM and 412 nM.
`COC(=O)CS(=O)(=O)c1ccc([C@@H](CO)NC(=O)c2cc3c(Cl)cc(C)cc3n2C)cc1` [Example 01-013, methyl 2-{4-[(1S)-1-[(4-chloro-1,6-dimethyl-1H-indol-2-yl)formamido]-2-hydroxyethyl]benzenesulfonyl}acetate]: the IC50 in the assay with MDA-MB-468 (setting [1]) stood at 8.3 nM; on PHGDH (setting [2]) it was 87 nM.
`CCOC(=O)CS(=O)(=O)c1ccc([C@@H](C)NC(=O)c2cc3c(Cl)c(Cl)c(C)nc3n2C)cc1` [Example 01-016, ethyl 2-{4-[(1R)-1-({4,5-dichloro-1,6-dimethyl-1H-pyrrolo[2,3-b]pyridin-2-yl}formamido)ethyl]benzenesulfonyl}acetate]: the IC50 was 72.1 nM in the assay on MDA-MB-468 (setting [4]) and 1090 nM at PHGDH (setting [2]).
Taken in the same sequence, the figures for `Cc1cc2c(cc(C(=O)N[C@H](CO)c3ccc(S(=O)(=O)CC(=O)OC(C)C)cc3)n2C)c(Cl)c1Cl` [Example 01-021, propan-2-yl 2-{4-[(1S)-1-[(4,5-dichloro-1,6-dimethyl-1H-indol-2-yl)formamido]-2-hydroxyethyl]benzenesulfonyl}acetate] were 12.6 nM and 463 nM.
Taken in the same sequence, the figures for `COC(=O)CS(=O)(=O)c1ccc([C@@H](CO)NC(=O)c2cc3c(Cl)c(Cl)c(C)nc3n2C)cc1` [Example 01-023, methyl 2-{4-[(1S)-1-({4,5-dichloro-1,6-dimethyl-1H-pyrrolo[2,3-b]pyridin-2-yl}formamido)-2-hydroxyethyl]benzenesulfonyl}acetate] were 0.8 nM and 216 nM.
On to `CC(C)OC(=O)CS(=O)(=O)c1ccc([C@@H](C)NC(=O)c2cc3cc(Cl)c(-c4cnn(CCN5CCOCC5)c4)cc3n2C)cc1` [Example 01-026, propan-2-yl 2-{4-[(1R)-1-[(5-chloro-1-methyl-6-{1-[2-(morpholin-4-yl)ethyl]-1H-pyrazol-4-yl}-1H-indol-2-yl)formamido]ethyl]benzenesulfonyl}acetate], for which the IC50 in the assay on MDA-MB-468 (setting [4]) is 35.9 nM; on PHGDH (setting [2]), 1350 nM.
In the case of `COC(=O)CS(=O)(=O)c1ccc([C@@H](C)NC(=O)c2cc3cc(Cl)c(-c4cnn(CCN5CCOCC5)c4)cc3n2C)cc1` [Example 01-027, methyl 2-{4-[(1R)-1-[(5-chloro-1-methyl-6-{1-[2-(morpholin-4-yl)ethyl]-1H-pyrazol-4-yl}-1H-indol-2-yl)formamido]ethyl]benzenesulfonyl}acetate], the IC50 in the assay with MDA-MB-468 (setting [4]) stood at 34.2 nM; at PHGDH (setting [2]) it was 248 nM.
As to `CCOC(=O)CS(=O)(=O)c1ccc([C@@H](CO)NC(=O)c2cc3c(F)c(F)c(C)cc3n2C)cc1` [Example 01-028, ethyl 2-{4-[(1S)-1-[(4,5-difluoro-1,6-dimethyl-1H-indol-2-yl)formamido]-2-hydroxyethyl]benzenesulfonyl}acetate], the IC50 with MDA-MB-468 (setting [4]) came to 7.3 nM; on PHGDH (setting [2]) it was 267 nM; at PHGDH (setting [3]), 525 nM.
With `COC(=O)CS(=O)(=O)c1ccc([C@@H](C)NC(=O)c2cc(-c3ccc(F)cc3)nn2C)cc1` [Example 02-001, methyl 2-{4-[(1R)-1-{[3-(4-fluorophenyl)-1-methyl-1H-pyrazol-5-yl]formamido}ethyl]benzenesulfonyl}acetate], the values for the IC50 in the assay with MDA-MB-468 (setting [4]) and on PHGDH (setting [2]) were 32.8 nM and 1260 nM, respectively.
`CCOC(=O)CS(=O)(=O)c1ccc([C@@H](C)NC(=O)c2cc(-c3ccc(F)cc3)nn2C)cc1` [Example 02-004, ethyl 2-{4-[(1R)-1-{[3-(4-fluorophenyl)-1-methyl-1H-pyrazol-5-yl]formamido}ethyl]benzenesulfonyl}acetate]: the IC50 with MDA-MB-468 (setting [4]) was found to be 62.1 nM; at PHGDH (setting [2]), 3100 nM.
Turning to `CCOC(=O)CS(=O)(=O)c1ccc([C@@H](C)NC(=O)c2cc(-c3cccc4cc[nH]c34)nn2C)cc1` [Example 02-005, ethyl 2-{4-[(1R)-1-{[3-(1H-indol-7-yl)-1-methyl-1H-pyrazol-5-yl]formamido}ethyl]benzenesulfonyl}acetate], the IC50 in the assay with MDA-MB-468 (setting [4]) was 64.8 nM; on PHGDH (setting [2]), 3000 nM.

The record behind these values is patent publication US11304929B2, “Tosylacetate based compounds and derivatives thereof as PHGDH inhibitors” (priority 2017, dated 2022).
